Measured values: patent US7521479B2 (priority 2001, dated 2009)
Structures can show the parent of a compound that is named as a salt.

Experiments:
Aβ1-40 = Aβ1-40 (Homo sapiens, UniProt P05067); conditions: cited from earlier work
PrP^Sc = PrP^Sc (Mus musculus, UniProt P04925); conditions: neuroblastoma cell line permanently infected with prions; cited from earlier work
prions = conditions: rodents, administered prophylactically; cited from earlier work
scrapie strain ME7 = assay type: in vivo, C57BL mice
[1] = in vivo; cited from earlier work
[2] = group d, spleens, at time of death

Sequence of Aβ1-40 (P05067 672-711 limits assumed): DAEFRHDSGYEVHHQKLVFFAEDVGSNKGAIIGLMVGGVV
Sequence of PrP^Sc (P04925 23-230 limits assumed): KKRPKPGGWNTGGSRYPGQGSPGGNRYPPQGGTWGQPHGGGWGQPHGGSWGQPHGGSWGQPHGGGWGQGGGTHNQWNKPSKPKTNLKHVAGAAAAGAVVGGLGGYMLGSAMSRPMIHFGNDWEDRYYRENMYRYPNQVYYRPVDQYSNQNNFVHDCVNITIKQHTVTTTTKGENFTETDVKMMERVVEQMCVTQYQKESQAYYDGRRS

Compound: Oc1ccc(O)c2ccccc12 [1,4-dihydroxynaphthalene]
- inhibition of Aβ1-40 aggregation and neurotoxicity (Aβ1-40): inhibit Aβ1-40 aggregation and neurotoxicity at comparable molar concentrations to rifampicin

Compound: Nc1c(/N=N/c2ccc(-c3ccc(/N=N/c4cc(S(=O)(=O)O)c5ccccc5c4N)cc3)cc2)cc(S(=O)(=O)O)c2ccccc12 [Congo red]
- accumulation of PrP^Sc (PrP^Sc): reduce the accumulation of PrP^Sc
- disease onset (prions): delay disease onset

Compound: Oc1ccc(O)cc1 [Hydroquinone]
- inhibition of Aβ1-40 aggregation and neurotoxicity (Aβ1-40): inhibit Aβ1-40 aggregation and neurotoxicity at comparable molar concentrations to rifampicin

Compound: N=C(N)N [guanidine hydrochloride]
- PrP^Sc titers at the final endpoint versus group b (scrapie strain ME7; [2]): lower PrP^Sc titers
- infectivity at the final endpoint versus group b (scrapie strain ME7; [2]): lower infectivity
- survival (time of death) of treated infected mice (scrapie strain ME7; group d: ME7 i.p., oral treatment from 70 days post-infection, 15 then 40 mg/kg/day): live as long as the mice in group a
- PrP^Sc level with treatment from one day post inoculation (scrapie strain ME7; group f, prophylactic-like treatment): negligible or not much higher than that provided in the initial inoculum
- overall efficacy in scrapie (scrapie strain ME7; overall results): effective in the treatment of scrapie
- side effects [1]: bone marrow depression to renal problems to cardiac arrhythmia
